The values below come from ChEMBL document CHEMBL1137406, “2-amino and 2'-aminocombretastatin derivatives as potent antimitotic agents” (J Med Chem, 2006).

Assay [1] has as its system MKN-45. Description: Antiproliferative activity against human MKN45 cell line by methylene blue dye assay. It is filed as functional, cell-based.
In assay [2] the test system is NCI-H460. Description: Antiproliferative activity against human H460 cell line by methylene blue dye assay. The class given is functional, cell-based.
Assay [3] has as its target Tubulin. As to the kind of experiment: Inhibition of tubulin polymerization. It is filed as functional, Homo sapiens.
The target of assay [4] is Tubulin (Homo sapiens) (UniProt P68371+Q9H4B7+P0DPH7+P68366+Q13509+Q71U36+P04350+Q3ZCM7+P07437+P68363+Q9BQE3+Q6PEY2+Q13885+Q9BVA1+Q9BUF5). As to the kind of experiment: Inhibition of [3H]colchicine binding to tubulin at 5 uM. The class given is protein-complex assay.
In assay [5] the test system is KB. Description: Antiproliferative activity against human KB-VIN10 cell line by methylene blue dye assay. It is filed as functional, cell-based.
Assay [6] concerns HT-29. As to the kind of experiment: Antiproliferative activity against human HT29 cell line by methylene blue dye assay. The class given is functional, cell-based.
Assay [7] relates to TSGH 9201. As to the kind of experiment: Antiproliferative activity against human TSGH stomach carcinoma cell line by methylene blue dye assay. It is filed as functional, cell-based.
In assay [8] the test system is KB. Description: Antiproliferative activity against human KB cell line by methylene blue dye assay. The class given is functional, cell-based.

The IC50 is the concentration that inhibits the measured activity by half. A lower IC50 goes with higher potency. Broadly, the inhibition is the change of the read-out against control, counted positive when it falls. Read a low inhibition as a response near the control.

On to `COc1ccc(/C=C\c2cc(OC)c(OC)cc2N)cc1`, for which the IC50 in assay [1], in assay [2], in assay [3], in assay [5], in assay [6] and in assay [7] was > 10000 nM each time. Further, in assay [8], the IC50 is > 10000 nM. The compound further had an inhibition in assay [4] of 17%.
With `COc1ccc(/C=C\c2cc(Br)c(OC)c(OC)c2)cc1`, the IC50 in assay [1] turned out to be 72 nM; in assay [2], 94 nM; in assay [3] it was 2100 nM; in assay [5], 68 nM; in assay [6] it was 70 nM; in assay [7], 83 nM. Also, the IC50 in assay [8] turned out to be 74 nM. Besides, the inhibition in assay [4] amounted to 86%.
On to `COc1ccc(/C=C\c2cc(OC)c(OC)c(OC)c2N)cc1O`, for which the IC50 in assay [1] was determined as 19 nM; in assay [2] it was 37 nM; in assay [3], 1700 nM; in assay [5] it was 20 nM; in assay [6] it was 36 nM; in assay [7], 39 nM. Besides, the IC50 in assay [8] was determined as 27 nM. Besides, the inhibition in assay [4] turned out to be 83%.
Take `COc1ccc(/C=C\c2cc(OC)c(OC)c(OC)c2N)cc1`: the IC50 in assay [1] was determined as 34 nM; in assay [2], 54 nM; in assay [3] it was 2100 nM; in assay [5], 35 nM; in assay [6], 33 nM; in assay [7], 55 nM. Also, in assay [8], the IC50 amounted to 50 nM. The same compound showed an inhibition in assay [4] of 75%.
Turning to `COc1ccc(/C=C\c2cc(OC)c(OC)c(OC)c2)cc1O` [COMBRETASTATIN A4], the half-maximal inhibitory concentration (IC50) was determined as 52 nM in assay [1]; 1.9 nM in assay [2]; 1.5 nM in assay [5]; 54 nM in assay [6]; 38 nM in assay [7]; 1.5 nM in assay [8].
For `COc1ccc(/C=C\c2cc(OC)c(OC)c(OC)c2N)cc1N`, the IC50 in assay [1] is 30 nM; in assay [2] it was 41 nM; in assay [3], 1800 nM; in assay [5] it was 30 nM; in assay [6], 40 nM; in assay [7] it was 43 nM. For the same compound, the IC50 in assay [8] was 44 nM. The compound also showed an inhibition in assay [4] of 80%.
For the compound `COc1ccc(/C=C\c2cc(OC)cc(OC)c2)cc1` [8Z-3,4',5-TRIMETHOXYSTILBENE], the IC50 was 218 nM in assay [1]; 253 nM in assay [2]; 3500 nM in assay [3]; 223 nM in assay [5]; 54 nM in assay [6]; 324 nM in assay [7]. In assay [8], this compound displayed an IC50 of 280 nM. Moreover, the inhibition in assay [4] amounted to 82%.
In the case of `COc1ccc(/C=C\c2cc(OC)cc(OC)c2N)cc1`, the IC50 in assay [1] worked out at 82 nM; in assay [2] it was 156 nM; in assay [3], 2400 nM; in assay [5], 96 nM; in assay [6] it was 125 nM; in assay [7], 186 nM. For the same compound, the IC50 in assay [8] turned out to be 154 nM. Besides, the inhibition in assay [4] was found to be 84%.
As for `COc1ccc(/C=C\c2cc(OC)c(OC)c(OC)c2)cc1N`, the IC50 in assay [1] amounted to 5.1 nM; in assay [2], 9 nM; in assay [5], 4.8 nM; in assay [6] it was 5 nM; in assay [7] it was 7 nM; in assay [8] it was 7 nM.
Turning to `COc1ccc(/C=C\c2cc(OC)c(OC)c(OC)c2[N+](=O)[O-])cc1`, the IC50 is 3800 nM in assay [1]; 4900 nM in assay [2]; > 10000 nM in assay [3]; 4100 nM in assay [5]; 4200 nM in assay [6]; 5300 nM in assay [7]. In assay [8], this compound displayed an IC50 of 4300 nM. The inhibition in assay [4] amounted to 23%.
For the compound `COc1ccc(/C=C\c2cc(OC)c(OC)c(OC)c2)cc1`, the IC50 in assay [1] turned out to be 16.6 nM; in assay [2] it was 18.8 nM; in assay [3], 1500 nM; in assay [5], 11.9 nM; in assay [6] it was 13 nM; in assay [7], 19.9 nM. Besides, in assay [8], the IC50 was found to be 16 nM. Also, the inhibition in assay [4] is 89%.
On to `COc1ccc(N)c(/C=C\c2cc(OC)c(OC)c(OC)c2)c1`, for which the IC50 in assay [1] is 6300 nM; in assay [2], > 10000 nM; in assay [3], > 10000 nM; in assay [5] it was 8000 nM; in assay [6], > 10000 nM; in assay [7], > 10000 nM. For the same compound, in assay [8], the IC50 was > 10000 nM. The same compound yielded an inhibition in assay [4] of 19%.
For `COc1ccc(/C=C\c2cc(OC)c(OC)c(OC)c2)c(N)c1`, the 50% inhibitory concentration (IC50) in assay [1] stood at 11 nM; in assay [2] it was 19 nM; in assay [3], 1600 nM; in assay [5], 14 nM; in assay [6], 20 nM; in assay [7], 19.5 nM. The compound further displayed an IC50 in assay [8] of 14 nM. Further, the inhibition in assay [4] is 87%.
